Results from ChEMBL document CHEMBL1201862, “PubChem BioAssay data set” (2004).
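Values below derive from 48-hour exposures of cells grown in 96-well plates, with endpoints linearly interpolated between the two concentrations bracketing the appropriate inhibition level. Here, GI50 denotes the concentration required for 50% inhibition of growth.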 Active and inactive are the calls of the source. No stated cut-off is given here; in the data, active = GI50 up to about 1.1 µM and inactive = higher.

How the values were obtained:
Assay in all cases: DTP human tumour cell line panel, 48 h
[1] = system: K562
[2] = system: Hs-578T
[3] = system: CAKI-1
[4] = system: SK-MEL-2
[5] = system: NCI/ADR-RES
[6] = system: UACC-257
[7] = system: RXF 393
[8] = system: SK-MEL-5
[9] = system: SK-OV-3
[10] = system: RPMI-8226
[11] = system: MCF7
[12] = system: COLO 205
[13] = system: NCI-H226
[14] = system: SNB-75
[15] = system: NCI-H460
[16] = system: OVCAR-8
[17] = system: BT-549
[18] = system: TK-10
[19] = system: MOLT-4
[20] = system: MDA-MB-231
[21] = system: A549
[22] = system: OVCAR-5
[23] = system: SNB-19
[24] = system: A498
[25] = system: SW-620
[26] = system: SF-539
[27] = system: SF-268
[28] = system: MDA-MB-435
[29] = system: CCRF-CEM
[30] = system: T47D
[31] = system: Malme-3M
[32] = system: EKVX
[33] = system: UO-31
[34] = system: HT-29
[35] = system: OVCAR-4
[36] = system: UACC-62
[37] = system: 786-0
[38] = system: NCI-H522
[39] = system: KM12
[40] = system: HCT-116
[41] = system: OVCAR-3
[42] = system: M14
[43] = system: NCI-H23
[44] = system: HOP-92
[45] = system: LOX IMVI
[46] = system: ACHN
[47] = system: U-251
[48] = system: PC-3
[49] = system: SF-295
[50] = system: IGROV-1
[51] = system: HOP-62
[52] = system: SR
[53] = system: HCT-15
[54] = system: DU-145
[55] = system: SN12C
[56] = system: HL-60
[57] = system: SK-MEL-28
[58] = system: HCC 2998
[59] = system: MDA-N

Measured: GI50

COc1ccc(-c2cc(-c3ccncc3)nc(N)c2-c2ccc(F)cc2)cc1
8.91 µM: [53]
inactive: [1] > 100 µM | [2] > 100 µM | [3] 32.3 µM | [4] 36 µM | [5] 24.9 µM | [6] 24.2 µM | [7] 15 µM | [8] 35.1 µM | [9] 95.9 µM | [10] > 100 µM | [11] 24.3 µM | [12] 5.43 µM | [13] 46.1 µM | [14] 11.5 µM | [15] 15.5 µM | [16] 41.3 µM | [17] 37.4 µM | [18] 35.2 µM | [19] 73.3 µM | [20] > 100 µM | [21] > 100 µM | [22] > 100 µM | [23] 41.5 µM | [24] 46.3 µM | [25] 9.18 µM | [26] 19.4 µM | [27] 44 µM | [28] 21.2 µM | [29] > 100 µM | [30] 80.9 µM | [31] > 100 µM | [32] > 100 µM | [33] 17.3 µM | [34] 11.7 µM | [35] 26.7 µM | [36] 71.4 µM | [37] 9.29 µM | [38] 11.1 µM | [39] 33.8 µM | [40] 11.9 µM | [41] 27.9 µM | [42] 42 µM | [43] 76 µM | [44] 83.4 µM | [45] 22.8 µM | [46] 3.76 µM | [47] > 100 µM | [48] 67.1 µM | [49] 80.9 µM | [50] 10.6 µM | [51] 45.4 µM | [52] 4.19 µM

O=C(O)c1ccc(Oc2nc3ccccc3s2)cc1
inactive: [1] > 100 µM | [2] 64.4 µM | [3] > 100 µM | [4] > 100 µM | [5] > 100 µM | [6] > 100 µM | [7] > 100 µM | [8] > 100 µM | [9] > 100 µM | [54] > 100 µM | [10] 74 µM | [11] > 100 µM | [12] > 100 µM | [13] > 100 µM | [15] > 100 µM | [16] > 100 µM | [17] > 100 µM | [18] > 100 µM | [19] > 100 µM | [20] > 100 µM | [21] > 100 µM | [22] > 100 µM | [23] > 100 µM | [24] > 100 µM | [25] > 100 µM | [26] > 100 µM | [55] > 100 µM | [27] > 100 µM | [56] > 100 µM | [28] > 100 µM | [29] > 100 µM | [30] > 100 µM | [31] > 100 µM | [32] > 100 µM | [33] > 100 µM | [34] > 100 µM | [35] > 100 µM | [36] > 100 µM | [37] > 100 µM | [38] > 100 µM | [39] > 100 µM | [40] > 100 µM | [41] > 100 µM | [42] > 100 µM | [43] > 100 µM | [44] 87.9 µM | [45] > 100 µM | [46] > 100 µM | [47] > 100 µM | [48] > 100 µM | [49] > 100 µM | [57] > 100 µM | [50] > 100 µM | [51] > 100 µM | [52] 85.7 µM
> 100 µM: [53]

COc1ccc(C[N+](C)(C)N)cc1OC
inactive: [1] 4.03 µM | [2] > 10 µM | [3] > 10 µM | [4] > 100 µM | [58] > 10 µM | [5] > 10 µM | [59] > 10 µM | [6] > 10 µM | [7] > 100 µM | [8] > 10 µM | [9] > 10 µM | [54] > 10 µM | [10] > 10 µM | [11] > 10 µM | [12] > 10 µM | [13] > 100 µM | [14] > 10 µM | [15] > 100 µM | [16] > 10 µM | [17] > 10 µM | [18] > 10 µM | [19] > 10 µM | [20] > 10 µM | [21] > 10 µM | [22] > 10 µM | [23] > 10 µM | [24] > 100 µM | [25] > 10 µM | [26] > 10 µM | [55] > 10 µM | [27] > 10 µM | [56] > 10 µM | [28] > 10 µM | [29] > 10 µM | [31] > 10 µM | [32] > 100 µM | [33] > 100 µM | [34] > 10 µM | [35] > 10 µM | [36] > 100 µM | [37] > 10 µM | [38] > 10 µM | [39] > 10 µM | [40] > 10 µM | [41] > 10 µM | [42] > 10 µM | [43] > 10 µM | [44] > 10 µM | [45] > 10 µM | [46] > 10 µM | [47] > 10 µM | [48] > 10 µM | [49] > 10 µM | [57] > 10 µM | [50] > 100 µM | [51] > 10 µM | [52] > 10 µM
> 10 µM: [53]

CC(=O)Oc1c(N2CCCCC2)c(C(=O)c2ccccc2)c(O)c2ccn(N(C)C)c12
18 µM: [53]
active: [19] 0.736 µM
inactive: [1] 34.4 µM | [2] 28.8 µM | [3] 15.4 µM | [4] 25.2 µM | [58] 18.5 µM | [5] 15.7 µM | [59] 17.9 µM | [6] 16.8 µM | [7] 20.7 µM | [8] 15.9 µM | [9] 20.8 µM | [54] 21.8 µM | [10] 7.01 µM | [11] 10.5 µM | [12] 16.7 µM | [13] 14.2 µM | [14] 13.2 µM | [15] 21.2 µM | [16] 20.7 µM | [17] 20.6 µM | [18] 16.7 µM | [20] 14 µM | [21] 12.4 µM | [22] 25.5 µM | [23] 25.4 µM | [24] 15.3 µM | [25] 17.3 µM | [26] 18.5 µM | [55] 18.5 µM | [27] 21.9 µM | [56] 6.38 µM | [28] 19.7 µM | [29] 15.7 µM | [31] 17.3 µM | [32] 16.1 µM | [33] 17.6 µM | [34] 14.6 µM | [35] 24.5 µM | [36] 15 µM | [37] 17.5 µM | [39] 10.9 µM | [40] 9.51 µM | [41] 19.6 µM | [42] 21.7 µM | [43] 18.9 µM | [44] 23.9 µM | [45] 14.1 µM | [46] 18.5 µM | [47] 16.7 µM | [48] 10.9 µM | [49] 15 µM | [57] 19.1 µM | [51] 27.2 µM
